ChEMBL document CHEMBL1201862, “PubChem BioAssay data set” (2004)
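Interpolation was linear, between the two tested concentrations surrounding the appropriate level; five concentrations were tested over 48 hours in 96-well plates. GI50 is the concentration that inhibits growth by half.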 The source made the active and inactive calls. Cut-off read from the data, not from the text of the source: active = GI50 up to about 1.1 µM and inactive = higher.

Columns and labels:
Assay in all cases: DTP human tumour cell line panel, 48 h
SK-MEL-28 = system: SK-MEL-28
LOX IMVI = system: LOX IMVI
SK-OV-3 = system: SK-OV-3
HCT-116 = system: HCT-116
NCI-H226 = system: NCI-H226
SNB-19 = system: SNB-19
MDA-N = system: MDA-N
IGROV-1 = system: IGROV-1
PC-3 = system: PC-3
MOLT-4 = system: MOLT-4
UACC-257 = system: UACC-257
SNB-75 = system: SNB-75
COLO 205 = system: COLO 205
CCRF-CEM = system: CCRF-CEM
OVCAR-3 = system: OVCAR-3
M14 = system: M14
Hs-578T = system: Hs-578T
HT-29 = system: HT-29
SK-MEL-2 = system: SK-MEL-2
HCT-15 = system: HCT-15

Compound	GI50 (SK-MEL-28)	GI50 (LOX IMVI)	GI50 (SK-OV-3)	GI50 (HCT-116)	GI50 (NCI-H226)	GI50 (SNB-19)	GI50 (MDA-N)	GI50 (IGROV-1)	GI50 (PC-3)	GI50 (MOLT-4)	GI50 (UACC-257)	GI50 (SNB-75)	GI50 (COLO 205)	GI50 (CCRF-CEM)	GI50 (OVCAR-3)	GI50 (M14)	GI50 (Hs-578T)	GI50 (HT-29)	GI50 (SK-MEL-2)	GI50 (HCT-15)
O=C(OCc1ccccc1)c1ccc(NCc2cc(O)ccc2O)cc1	1.63 µM (inactive)	1.14 µM (inactive)	2.7 µM (inactive)	1.51 µM (inactive)	2.42 µM (inactive)	2.85 µM (inactive)	1.56 µM (inactive)	1.23 µM (inactive)	1.36 µM (inactive)	0.535 µM (active)	1.6 µM (inactive)	0.906 µM (active)	1.47 µM (inactive)	0.308 µM (active)	1 µM (active)	1.91 µM (inactive)	1.51 µM (inactive)	6.24 µM (inactive)	2.05 µM (inactive)	1.03 µM
COC(=O)[C@H](Cc1ccccc1)NP(=O)(O)OCC1OC(n2cc(C)c(=O)[nH]c2=O)CC1N=[N+]=[N-] (stereo not given in full)	> 100 µM (inactive)	> 100 µM (inactive)	> 100 µM (inactive)	> 100 µM (inactive)	> 100 µM (inactive)	> 100 µM (inactive)	> 100 µM (inactive)	> 100 µM (inactive)	> 100 µM (inactive)	> 100 µM (inactive)	> 100 µM (inactive)	> 100 µM (inactive)	> 100 µM (inactive)	> 100 µM (inactive)	> 100 µM (inactive)	> 100 µM (inactive)	> 100 µM (inactive)	> 100 µM (inactive)	> 100 µM (inactive)	> 100 µM
CCn1c(O)c(C(=O)NC(C)c2ccc([N+](=O)[O-])cc2)c(=O)n(CC)c1=S (stereo not given)	4.27 µM (inactive)	2.31 µM (inactive)	3.09 µM (inactive)	1.64 µM (inactive)	2.75 µM (inactive)	1.93 µM (inactive)	3.59 µM (inactive)	2.75 µM (inactive)	0.773 µM (active)	2.05 µM (inactive)	3.85 µM (inactive)	2.16 µM (inactive)	1.81 µM (inactive)	1.59 µM (inactive)	2.16 µM (inactive)	2.6 µM (inactive)	2.52 µM (inactive)	2.34 µM (inactive)	1.02 µM (active)	2.58 µM
O=C(N/N=C/c1ccccc1)c1cccc2nc3ccccc3nc12	> 100 µM (inactive)	29.9 µM (inactive)	> 88.3 µM (inactive)	> 100 µM (inactive)	38.7 µM (inactive)	> 73.1 µM (inactive)	54.2 µM (inactive)	63.5 µM (inactive)	> 100 µM (inactive)	> 100 µM (inactive)	> 100 µM (inactive)	> 100 µM (inactive)	4.08 µM (inactive)	> 74.8 µM (inactive)	> 100 µM (inactive)	35 µM (inactive)	18.7 µM (inactive)	46.3 µM (inactive)	> 100 µM (inactive)	9.66 µM
O=C1C(=Cc2ccccc2[N+](=O)[O-])N=C(c2ccccc2)N1n1c(-c2ccccc2)nc2ccccc2c1=O	30.9 µM (inactive)	29.4 µM (inactive)	40.7 µM (inactive)	17 µM (inactive)	32.5 µM (inactive)	35.3 µM (inactive)	36.4 µM (inactive)	32.2 µM (inactive)	27.3 µM (inactive)	27.8 µM (inactive)	24.8 µM (inactive)	35.6 µM (inactive)	31.3 µM (inactive)	31 µM (inactive)	29 µM (inactive)	42.5 µM (inactive)	20.6 µM (inactive)	32.1 µM (inactive)	29.4 µM (inactive)	24.5 µM
CC(NC(=O)C(N)CC(=O)O)NC(=O)N1CCCC1 (stereo not given)	> 100 µM (inactive)	> 100 µM (inactive)	> 100 µM (inactive)	> 100 µM (inactive)	> 100 µM (inactive)	> 100 µM (inactive)	> 100 µM (inactive)	> 100 µM (inactive)	> 100 µM (inactive)	> 100 µM (inactive)	> 100 µM (inactive)	> 100 µM (inactive)	> 100 µM (inactive)	> 100 µM (inactive)	> 100 µM (inactive)	> 100 µM (inactive)	> 100 µM (inactive)	> 100 µM (inactive)	> 100 µM (inactive)	> 100 µM
C/C(=N/NC(=S)Nc1cccc(Cl)c1)c1ccccn1	2.21 µM (inactive)	0.125 µM (active)	0.265 µM (active)	< 0.0161 µM (active)	0.213 µM (active)	2.5 µM (inactive)	0.776 µM (active)	0.0395 µM (active)	0.0255 µM (active)	< 0.0156 µM (active)	< 0.0208 µM (active)	2.95 µM (inactive)	0.0372 µM (active)	< 0.0174 µM (active)	0.0365 µM (active)	0.242 µM (active)	0.429 µM (active)	0.0488 µM (active)	1.2 µM (inactive)	0.0588 µM
COC(=O)C1=C(O)CCCC(CCC(C)=O)=C1	> 100 µM (inactive)	38.2 µM (inactive)	> 100 µM (inactive)	17.5 µM (inactive)	> 100 µM (inactive)	> 100 µM (inactive)	31.9 µM (inactive)	41.2 µM (inactive)	> 100 µM (inactive)	36.5 µM (inactive)	98.4 µM (inactive)	76.6 µM (inactive)	20.5 µM (inactive)	9.71 µM (inactive)	48.8 µM (inactive)	47 µM (inactive)	> 100 µM (inactive)	57.4 µM (inactive)	> 100 µM (inactive)	39.3 µM
Cc1nn(C(=O)c2ccc(Cl)cc2)c2c1C(c1ccccc1O)SC(=N)N2 (stereo not given)	> 10 µM (inactive)	> 10 µM (inactive)	> 10 µM (inactive)	> 10 µM (inactive)	> 10 µM (inactive)	> 10 µM (inactive)	> 10 µM (inactive)	> 10 µM (inactive)	> 10 µM (inactive)	> 10 µM (inactive)	> 10 µM (inactive)	> 10 µM (inactive)	> 10 µM (inactive)	> 10 µM (inactive)	> 10 µM (inactive)	> 10 µM (inactive)	> 10 µM (inactive)	> 10 µM (inactive)	> 10 µM (inactive)	> 10 µM
Cc1nn(C(=O)c2ccncc2)c2c1C(c1cccc([N+](=O)[O-])c1)SC(=N)N2 (stereo not given)	> 10 µM (inactive)	> 10 µM (inactive)	> 10 µM (inactive)	> 10 µM (inactive)	> 10 µM (inactive)	> 10 µM (inactive)	> 10 µM (inactive)	> 10 µM (inactive)	> 10 µM (inactive)	> 10 µM (inactive)	> 10 µM (inactive)	> 10 µM (inactive)	> 10 µM (inactive)	> 10 µM (inactive)	> 10 µM (inactive)	> 10 µM (inactive)	> 10 µM (inactive)	> 10 µM (inactive)	> 10 µM (inactive)	> 10 µM
Cn1c(-c2ccccc2)cc(-c2ccc3c(c2)OCO3)c1-c1cccs1	> 100 µM (inactive)	> 100 µM (inactive)	> 100 µM (inactive)	96.8 µM (inactive)	> 100 µM (inactive)	> 100 µM (inactive)	> 100 µM (inactive)	> 100 µM (inactive)	> 100 µM (inactive)	> 100 µM (inactive)	> 100 µM (inactive)	> 100 µM (inactive)	> 100 µM (inactive)	> 100 µM (inactive)	> 100 µM (inactive)	> 100 µM (inactive)	> 100 µM (inactive)	> 100 µM (inactive)	> 100 µM (inactive)	> 100 µM
COc1cc2cc3c4cc(OC)c(OC)cc4cc[n+]3c(C)c2cc1OC.O=C([O-])CS(=O)(=O)O	73.3 µM (inactive)	> 100 µM (inactive)	> 100 µM (inactive)	> 100 µM (inactive)	10.8 µM (inactive)	17.7 µM (inactive)	49.4 µM (inactive)	80.9 µM (inactive)	74.5 µM (inactive)	> 100 µM (inactive)	39.7 µM (inactive)	12.3 µM (inactive)	57 µM (inactive)	33.2 µM (inactive)	78.9 µM (inactive)	> 100 µM (inactive)	20.7 µM (inactive)	53.3 µM (inactive)	> 100 µM (inactive)	> 100 µM
NCC1Nc2ccccc2[C@@H](O)C1O (stereo not given in full)	> 100 µM (inactive)	> 100 µM (inactive)	> 100 µM (inactive)	> 100 µM (inactive)	> 100 µM (inactive)	> 100 µM (inactive)	> 100 µM (inactive)	> 100 µM (inactive)	> 100 µM (inactive)	> 100 µM (inactive)	> 100 µM (inactive)	> 100 µM (inactive)	> 100 µM (inactive)	> 100 µM (inactive)	> 100 µM (inactive)	> 100 µM (inactive)	> 100 µM (inactive)	> 100 µM (inactive)	> 100 µM (inactive)	> 100 µM
CCOC(=O)c1[nH]c(Br)c(-c2ccc(Br)cc2)c1Br	0.366 µM (active)	0.446 µM (active)	1.69 µM (inactive)	0.376 µM (active)	1.31 µM (inactive)	1.3 µM (inactive)	0.213 µM (active)	0.601 µM (active)	0.705 µM (active)	0.367 µM (active)	0.671 µM (active)	0.327 µM (active)	0.385 µM (active)	8.15 µM (inactive)	0.237 µM (active)	0.386 µM (active)	0.395 µM (active)	0.327 µM (active)	0.307 µM (active)	0.516 µM
